What was measured:
[1] = biological target: laminin receptor; parameters: method as in Khan et al., 2006; Yang et al., 2009; details: ref Khan et al., 2006; Yang et al., 2009; cited from earlier work
[2] = system: DYRK1A; parameters: method as in Khan et al., 2006; Yang et al., 2009; details: ref Khan et al., 2006; Yang et al., 2009; cited from earlier work
[3] = system: vimentin; parameters: method as in Khan et al., 2006; Yang et al., 2009; details: ref Khan et al., 2006; Yang et al., 2009; cited from earlier work
[4] = biological target: T1, CK2 (Homo sapiens, UniProt P68400); assay: Recombinant protein kinase assay, CK2; type: biochemical; details: 15 µM ATP
T1 construct: Cochet

[5] = biological target: CLK3 (Mus musculus, UniProt O35492); assay: Recombinant protein kinase assay, CLK3; type: biochemical; details: 15 µM ATP; read-out: IC50 CLK3
[6] = biological target: DYRK3 (Homo sapiens, UniProt O43781); assay: Recombinant protein kinase assay, DYRK3; type: biochemical; details: 15 µM ATP
[7] = biological target: DYRK1A (Homo sapiens, UniProt Q13627); assay: Recombinant protein kinase assay, DYRK1A; type: biochemical; details: 15 µM ATP
[8] = biological target: CLK2 (Mus musculus, UniProt O35491); assay: Recombinant protein kinase assay, CLK2; type: biochemical; details: 15 µM ATP; read-out: IC50 CLK2
[9] = biological target: T2, CDK9/cyclin T (Homo sapiens, UniProt P50750); assay: Recombinant protein kinase assay, CDK9/cyclin T; type: biochemical; details: 15 µM ATP
T2 construct: made in house; host or cells: insect cells

[10] = biological target: CDK2/cyclin A (Homo sapiens, UniProt P24941); assay: Recombinant protein kinase assay, CDK2/cyclin A; type: biochemical; details: 15 µM ATP
[11] = system: Tg(Dyrk1a) mice; assay: Novel object recognition (NOR) test in Tg(Dyrk1a) mice; type: in vivo, mouse; details: daily i.p. treatment for 19 days
[12] = biological target: CDK5/p25 (Homo sapiens, UniProt Q00535); assay: Recombinant protein kinase assay, CDK5/p25; type: biochemical; details: 15 µM ATP
[13] = biological target: T3, DYRK1A (Mus musculus, UniProt Q61214); assay: Brain DYRK1A catalytic activity after treatment, Tg(Dyrk1a) mice; type: in vivo; details: 19 days of treatment
T3 construct: DYRK1A was purified from brain extracts by immunoprecipitation; from tissue; host or cells: mouse brain (wt, Tg(Dyrk1a), Ts65Dn)
Protocol: Protein kinase assays to measure the catalytic activity of DYRK1A in the brains of the animals treated with or without drugs were performed as follows: frozen half brains were homogenized in lysis buffer (1.2 ml/half brain) using Precellys® homogenizer tubes. After centrifugation at 2800 g for 2×15 s, 1 mg brain extract was incubated with 2 µg DYRK1A (H00001859 M01, Interchim) or GSK3-β (MBS8508391, Emelca Bioscience, France) antibodies at 4°C for 1 h under gentle rotation. Then, 20 µl protein G agarose beads (Thermo Fisher Scientific, France), previously washed three times with bead buffer (50 mM Tris pH 7.4, 5 mM NaF, 250 mM NaCl, 5 mM EDTA, 5 mM EGTA, 0.1% Nonidet P-40 and protease inhibitor cocktail from Roche, France), were added to the mix and gently rotated at 4°C for 30 min. After a 1 min spin at 10,000 g and removal of the supernatant, the pelleted immune complexes were washed three times with bead buffer, and a last time with Buffer C (60 mM β-glycerophosphate, 30 mM p-nitrophenolphosphate, 25 mM Mops pH 7.2, 5 mM EGTA, 15 mM MgCl2, 2 mM dithiothreitol, 0.1 mM sodium orthovanadate, 1 mM phenylphosphate, protease inhibitor cocktail). DYRK1A or GSK-3 immobilized on beads were assayed in buffer C as described in the Supplementary Materials and Methods with Woodtide ([…]) (1.5 µg/assay) or GSK3-tide ([…]pSED-EEE, where pS stands for phosphorylated serine) as substrates.

[14] = biological target: PIM1 (Homo sapiens, UniProt P11309); assay: Recombinant protein kinase assay, PIM1; type: biochemical; details: 15 µM ATP
[15] = biological target: DYRK1B (Homo sapiens, UniProt Q9Y463); assay: Recombinant protein kinase assay, DYRK1B; type: biochemical; details: 15 µM ATP
[16] = biological target: DYRK2 (Homo sapiens, UniProt Q92630); assay: Recombinant protein kinase assay, DYRK2; type: biochemical; details: 15 µM ATP
[17] = biological target: CLK4 (Mus musculus, UniProt O35493); assay: Recombinant protein kinase assay, CLK4; type: biochemical; details: 15 µM ATP
[18] = biological target: CLK1 (Mus musculus, UniProt P22518); assay: Recombinant protein kinase assay, CLK1; type: biochemical; details: 15 µM ATP; read-out: IC50 CLK1

Sequence of CLK2 (O35491 whole entry): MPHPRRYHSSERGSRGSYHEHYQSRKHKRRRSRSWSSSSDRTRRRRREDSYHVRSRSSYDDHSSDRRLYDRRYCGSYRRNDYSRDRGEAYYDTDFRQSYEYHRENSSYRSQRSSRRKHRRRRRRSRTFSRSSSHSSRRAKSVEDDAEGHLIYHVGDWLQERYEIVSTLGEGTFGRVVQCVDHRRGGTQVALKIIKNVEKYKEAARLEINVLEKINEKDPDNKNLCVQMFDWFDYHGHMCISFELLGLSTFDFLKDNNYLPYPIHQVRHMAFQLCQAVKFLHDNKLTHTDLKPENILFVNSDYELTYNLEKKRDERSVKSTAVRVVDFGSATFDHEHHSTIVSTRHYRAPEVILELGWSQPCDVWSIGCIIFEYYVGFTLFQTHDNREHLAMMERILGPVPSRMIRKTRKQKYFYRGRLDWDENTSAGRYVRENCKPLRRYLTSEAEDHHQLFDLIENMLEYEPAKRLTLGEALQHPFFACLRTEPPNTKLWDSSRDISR
Sequence of CLK3 (O35492 whole entry): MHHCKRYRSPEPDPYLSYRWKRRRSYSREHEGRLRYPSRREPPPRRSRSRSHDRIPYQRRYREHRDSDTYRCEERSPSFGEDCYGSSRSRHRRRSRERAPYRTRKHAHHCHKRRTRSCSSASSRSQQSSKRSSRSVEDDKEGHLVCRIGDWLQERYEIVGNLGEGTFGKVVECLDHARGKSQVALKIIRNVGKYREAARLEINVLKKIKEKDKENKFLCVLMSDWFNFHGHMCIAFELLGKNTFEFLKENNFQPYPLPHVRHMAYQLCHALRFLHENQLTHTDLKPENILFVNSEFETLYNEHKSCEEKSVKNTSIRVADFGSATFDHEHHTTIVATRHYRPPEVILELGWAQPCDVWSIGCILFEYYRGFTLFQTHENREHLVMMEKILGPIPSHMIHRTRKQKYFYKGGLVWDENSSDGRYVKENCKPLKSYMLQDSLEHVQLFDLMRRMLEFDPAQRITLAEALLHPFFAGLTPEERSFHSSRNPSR
T1 sequence (P68400 whole entry): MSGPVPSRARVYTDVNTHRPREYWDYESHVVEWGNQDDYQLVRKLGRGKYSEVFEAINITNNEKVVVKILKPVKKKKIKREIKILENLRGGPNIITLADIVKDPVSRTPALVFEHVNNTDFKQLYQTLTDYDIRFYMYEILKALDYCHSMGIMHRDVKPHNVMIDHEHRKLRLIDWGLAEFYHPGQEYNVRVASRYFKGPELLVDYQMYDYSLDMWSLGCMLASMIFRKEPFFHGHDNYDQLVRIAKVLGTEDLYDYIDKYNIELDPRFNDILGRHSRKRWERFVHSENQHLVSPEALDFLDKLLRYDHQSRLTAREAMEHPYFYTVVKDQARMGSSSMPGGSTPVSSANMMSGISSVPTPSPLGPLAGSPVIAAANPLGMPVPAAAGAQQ
Sequence of CDK5/p25 (Q00535 whole entry): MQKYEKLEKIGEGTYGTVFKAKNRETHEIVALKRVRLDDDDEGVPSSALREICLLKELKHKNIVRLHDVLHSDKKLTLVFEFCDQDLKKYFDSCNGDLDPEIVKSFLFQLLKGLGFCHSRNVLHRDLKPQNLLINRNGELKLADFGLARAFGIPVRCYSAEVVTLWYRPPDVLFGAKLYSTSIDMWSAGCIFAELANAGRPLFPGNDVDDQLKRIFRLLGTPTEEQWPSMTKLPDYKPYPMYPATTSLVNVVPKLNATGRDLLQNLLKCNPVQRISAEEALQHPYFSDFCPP
Sequence of CDK5/p25 (Q15078 99-307 partner limits assumed): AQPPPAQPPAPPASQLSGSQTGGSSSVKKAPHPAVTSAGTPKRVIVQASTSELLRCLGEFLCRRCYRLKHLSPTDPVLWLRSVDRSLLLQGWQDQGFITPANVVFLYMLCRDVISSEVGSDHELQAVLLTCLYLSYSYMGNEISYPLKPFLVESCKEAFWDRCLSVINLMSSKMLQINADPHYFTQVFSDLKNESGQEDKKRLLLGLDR
T2 sequence (P50750 whole entry): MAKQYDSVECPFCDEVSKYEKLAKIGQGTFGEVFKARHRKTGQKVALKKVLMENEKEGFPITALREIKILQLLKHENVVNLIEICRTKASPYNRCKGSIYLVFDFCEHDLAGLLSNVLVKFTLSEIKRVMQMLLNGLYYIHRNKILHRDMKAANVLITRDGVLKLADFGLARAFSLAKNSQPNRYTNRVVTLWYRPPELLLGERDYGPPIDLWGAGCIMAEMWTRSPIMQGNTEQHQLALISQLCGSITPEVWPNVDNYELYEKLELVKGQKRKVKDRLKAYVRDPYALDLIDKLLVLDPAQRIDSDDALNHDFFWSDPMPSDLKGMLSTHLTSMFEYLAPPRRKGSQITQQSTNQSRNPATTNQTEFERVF
T2 sequence (O60563 whole entry partner): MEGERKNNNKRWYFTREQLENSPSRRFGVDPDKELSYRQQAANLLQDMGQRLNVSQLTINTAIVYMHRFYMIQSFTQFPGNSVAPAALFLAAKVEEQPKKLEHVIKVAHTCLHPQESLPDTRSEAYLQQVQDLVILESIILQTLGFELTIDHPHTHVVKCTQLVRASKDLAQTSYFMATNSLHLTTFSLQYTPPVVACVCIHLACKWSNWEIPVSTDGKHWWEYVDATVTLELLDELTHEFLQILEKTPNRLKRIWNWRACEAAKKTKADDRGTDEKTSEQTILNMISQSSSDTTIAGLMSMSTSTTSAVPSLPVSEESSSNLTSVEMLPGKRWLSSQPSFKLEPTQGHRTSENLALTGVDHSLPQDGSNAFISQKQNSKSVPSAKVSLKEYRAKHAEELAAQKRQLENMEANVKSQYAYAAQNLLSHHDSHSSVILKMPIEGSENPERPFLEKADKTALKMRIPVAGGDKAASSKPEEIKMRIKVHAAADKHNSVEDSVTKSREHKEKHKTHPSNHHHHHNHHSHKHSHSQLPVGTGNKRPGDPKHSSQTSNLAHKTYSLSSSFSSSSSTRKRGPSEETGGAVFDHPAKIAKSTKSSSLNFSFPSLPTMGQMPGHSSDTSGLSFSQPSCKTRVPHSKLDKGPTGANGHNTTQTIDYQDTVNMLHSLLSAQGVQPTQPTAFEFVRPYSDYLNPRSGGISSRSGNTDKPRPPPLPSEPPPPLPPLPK
Sequence of DYRK3 (O43781 whole entry): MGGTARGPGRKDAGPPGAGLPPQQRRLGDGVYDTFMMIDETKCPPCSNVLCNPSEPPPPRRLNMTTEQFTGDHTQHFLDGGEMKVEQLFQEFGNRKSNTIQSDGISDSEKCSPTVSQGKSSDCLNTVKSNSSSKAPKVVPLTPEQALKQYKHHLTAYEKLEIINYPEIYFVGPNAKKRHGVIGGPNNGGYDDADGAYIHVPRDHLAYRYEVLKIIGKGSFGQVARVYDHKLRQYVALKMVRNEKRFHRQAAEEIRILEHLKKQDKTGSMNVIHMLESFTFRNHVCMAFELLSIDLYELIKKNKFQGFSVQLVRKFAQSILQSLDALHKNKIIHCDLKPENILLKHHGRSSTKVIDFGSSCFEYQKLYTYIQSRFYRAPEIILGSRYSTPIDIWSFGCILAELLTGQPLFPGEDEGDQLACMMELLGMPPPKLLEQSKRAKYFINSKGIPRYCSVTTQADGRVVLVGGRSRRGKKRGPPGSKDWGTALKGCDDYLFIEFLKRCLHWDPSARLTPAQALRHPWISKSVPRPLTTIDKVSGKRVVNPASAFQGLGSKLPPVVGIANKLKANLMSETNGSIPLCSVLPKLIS
Sequence of PIM1 (P11309 whole entry): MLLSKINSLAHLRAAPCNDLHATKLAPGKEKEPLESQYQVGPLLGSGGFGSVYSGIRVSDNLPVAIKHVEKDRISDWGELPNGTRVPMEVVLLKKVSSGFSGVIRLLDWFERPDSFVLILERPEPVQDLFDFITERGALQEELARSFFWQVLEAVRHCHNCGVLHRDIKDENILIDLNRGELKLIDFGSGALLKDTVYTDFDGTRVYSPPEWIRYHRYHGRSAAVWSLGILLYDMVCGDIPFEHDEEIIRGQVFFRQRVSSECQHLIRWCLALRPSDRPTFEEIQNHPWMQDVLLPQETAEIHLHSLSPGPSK
Sequence of DYRK1B (Q9Y463 whole entry): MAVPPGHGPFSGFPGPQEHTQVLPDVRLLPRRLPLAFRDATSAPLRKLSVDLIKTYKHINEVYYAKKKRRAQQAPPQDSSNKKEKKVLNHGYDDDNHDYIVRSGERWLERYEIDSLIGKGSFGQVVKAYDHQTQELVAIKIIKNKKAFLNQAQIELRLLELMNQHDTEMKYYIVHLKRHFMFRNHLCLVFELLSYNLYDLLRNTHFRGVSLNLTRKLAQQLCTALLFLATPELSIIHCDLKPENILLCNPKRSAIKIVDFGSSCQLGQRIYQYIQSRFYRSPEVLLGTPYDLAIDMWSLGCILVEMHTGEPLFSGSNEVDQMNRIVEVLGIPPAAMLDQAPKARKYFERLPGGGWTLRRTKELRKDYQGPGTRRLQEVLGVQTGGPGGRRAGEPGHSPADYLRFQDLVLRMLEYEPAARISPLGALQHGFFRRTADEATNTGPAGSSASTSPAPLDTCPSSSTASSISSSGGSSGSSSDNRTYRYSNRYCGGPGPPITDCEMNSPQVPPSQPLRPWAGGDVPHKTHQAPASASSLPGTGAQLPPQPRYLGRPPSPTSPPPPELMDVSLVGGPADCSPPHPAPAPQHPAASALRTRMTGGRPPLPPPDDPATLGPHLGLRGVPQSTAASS

| Compound | IC50 [1] [nM] | IC50 [2] [nM] | IC50 [3] [nM] | IC50 [4] [nM] | IC50 [5] [nM] | IC50 [6] [nM] | IC50 [7] [nM] | IC50 [8] [nM] | IC50 [9] [nM] | IC50 [10] [nM] | Behavioural effect in NOR test [11] | IC50 [12] [nM] | Tg(Dyrk1a) brain DYRK1A activity [13] | IC50 [14] [nM] | IC50 [15] [nM] | IC50 [16] [nM] | IC50 [17] [nM] | IC50 [18] [nM] |
| --- | --- | --- | --- | --- | --- | --- | --- | --- | --- | --- | --- | --- | --- | --- | --- | --- | --- | --- |
| O=C(O[C@@H]1Cc2c(O)cc(O)cc2O[C@@H]1c1cc(O)c(O)c(O)c1)c1cc(O)c(O)c(O)c1 [EGCG, epigallocatechin gallate] | 40 | 330 | 3 |  |  |  |  |  |  |  |  |  |  |  |  |  |  |  |
| O=C1NC(Nc2ccccc2)=N/C1=C\c1ccc2c(c1)OCCCO2 [L43] |  |  |  | > 10000 | > 10000 | > 10000 | 7400 | > 10000 | > 10000 | > 10000 | lack of effects | > 10000 | did not reduce |  |  |  |  |  |
| COc1cc(/C=C2\N=C(Nc3ccc(N4CCN(C)CC4)cc3)NC2=O)ccc1O [L99] |  |  |  | > 10000 | 700 | 10 | 14 | 30 | 320 | > 10000 | beneficial behavioural effects | > 10000 |  | 210 | 20 | 15 | 12 | 12 |
